Results taken from US20260138990A1, “TRICYCLIC FUSED IMIDAZOLE COMPOUNDS AS CD38 MODULATORS AND USES THEREOF” (AEOVIAN PHARMACEUTICALS, INC., priority 2023, published 2026).

Key:
mouse CD38 = target: T1, mouse CD38 (Mus musculus, UniProt P56528); test: NAD+ cyclase activity assay with mouse recombinant CD38 protein (ε-NAD fluorescence); format: biochemical; conditions: 0.6 nM mouse CD38, substrate ε-NAD, 30 min preincubation, fluorescence 300/410 nm
T1 construct: purchased Bio-Techne GmbH 4947-AC
T1 sequence (P56528 1-304): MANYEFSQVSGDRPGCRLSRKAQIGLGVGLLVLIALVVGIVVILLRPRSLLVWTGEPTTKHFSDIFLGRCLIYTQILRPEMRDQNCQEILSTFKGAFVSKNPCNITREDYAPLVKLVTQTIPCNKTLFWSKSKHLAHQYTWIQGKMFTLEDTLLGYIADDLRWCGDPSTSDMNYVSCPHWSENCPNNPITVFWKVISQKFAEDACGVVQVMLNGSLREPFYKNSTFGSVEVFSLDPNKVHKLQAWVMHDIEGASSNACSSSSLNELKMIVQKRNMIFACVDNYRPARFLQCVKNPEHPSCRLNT
How it was run: (§1)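 Twelve-point threefold compound dilutions were given 30 min at room temperature with 0.6 nM mouse or 1.9 nM human CD38 before […] ε-NAD was added (pH 7.5 HEPES/sucrose/Tween buffer). The rate came from the linear-phase slope of ex 300/em 410 nm fluorescence against vehicle and no-CD38 controls.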

human CD38 = target: T2, human CD38 (Homo sapiens, UniProt P28907); test: NAD+ cyclase activity assay with human recombinant CD38 protein (ε-NAD fluorescence); format: biochemical; conditions: 1.9 nM human CD38, substrate ε-NAD, 30 min preincubation, fluorescence 300/410 nm
T2 construct: purchased Bio-Techne GmbH AVI2404
T2 sequence (P28907 1-300): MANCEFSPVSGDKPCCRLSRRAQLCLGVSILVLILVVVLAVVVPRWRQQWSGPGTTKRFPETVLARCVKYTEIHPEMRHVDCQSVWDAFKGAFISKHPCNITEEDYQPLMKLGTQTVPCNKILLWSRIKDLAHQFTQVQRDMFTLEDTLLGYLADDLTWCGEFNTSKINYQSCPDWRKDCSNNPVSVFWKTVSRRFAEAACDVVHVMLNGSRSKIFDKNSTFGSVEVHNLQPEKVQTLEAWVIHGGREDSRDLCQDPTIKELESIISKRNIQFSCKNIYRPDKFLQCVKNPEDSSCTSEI
How it was run: as §1

SMILES	IC50 (mouse CD38) [nM]	IC50 (human CD38) [nM]
O=C(N[C@H]1CC[C@@H](OCCC(F)(F)F)CC1)c1ccc2c(c1)-c1cncn1CCO2 [Compound 89A, N-((1s,4s)-4-(3,3,3-Trifluoropropoxy)cyclohexyl)-5,6-dihydrobenzo[f]imidazo[1,5-d][1,4]oxazepine-10-carboxamide]	> 100	100 to 1000
O=C(N[C@H]1CC[C@H](OCCC(F)(F)F)CC1)c1ccc2c(c1)-c1cncn1CCO2 [Compound 90A, N-((1r,4r)-4-(3,3,3-Trifluoropropoxy)cyclohexyl)-5,6-dihydrobenzo[f]imidazo[1,5-d][1,4]oxazepine-10-carboxamide]	< 1	< 30
COCCO[C@H]1CC[C@H](NC(=O)c2cc(F)c3c(c2F)-c2cncn2CCO3)CC1 [Compound 91A, 8,11-Difluoro-N-((1r,4r)-4-(2-methoxyethoxy)cyclohexyl)-5,6-dihydrobenzo[f]imidazo[1,5-d][1,4]oxazepine-10-carboxamide]	1 to 10	30 to 100
O=C(N[C@@H]1CCC(F)(F)C1)c1ccc2c(c1)-c1cncn1CCO2 [Compound 92A, (R)—N-(3,3-Difluorocyclopentyl)-5,6-dihydrobenzo[f]imidazo[1,5-d][1,4]oxazepine-10-carboxamide]	1 to 10	< 30
O=C(N[C@H]1CCC(F)(F)C1)c1ccc2c(c1)-c1cncn1CCO2 [Compound 93A, (S)—N-(3,3-Difluorocyclopentyl)-5,6-dihydrobenzo[f]imidazo[1,5-d][1,4]oxazepine-10-carboxamide]	1 to 10	< 30
COCCO[C@H]1CC[C@H](NC(=O)c2cc(Cl)c3c(c2)-c2cncn2CCO3)CC1 [Compound 94A, 8-Chloro-N-((1r,4r)-4-(2-methoxyethoxy)cyclohexyl)-5,6-dihydrobenzo[f]imidazo[1,5-d][1,4]oxazepine-10-carboxamide]	< 1	< 30
COCCO[C@H]1CC[C@H](NC(=O)c2cc3c(c(F)c2F)OCCn2cncc2-3)CC1 [Compound 95A, 8,9-Difluoro-N-((1r,4r)-4-(2-methoxyethoxy)cyclohexyl)-5,6-dihydrobenzo[f]imidazo[1,5-d][1,4]oxazepine-10-carboxamide]	1 to 10	< 30
O=C(NC1CCCC(F)(F)C1)c1ccc2c(c1)-c1cncn1CCO2 (stereo not shown) [Compound 96A, N-(3,3-Difluorocyclohexyl)-5,6-dihydrobenzo[f]imidazo[1,5-d][1,4]oxazepine-10-carboxamide]	1 to 10	< 30
O=C(Nc1cnc2c(c1)OCCO2)c1cc(F)c2c(c1)-c1cncn1CCO2 [Compound 97A, N-(2,3-Dihydro-[1,4]dioxino[2,3-b]pyridin-7-yl)-8-fluoro-5,6-dihydrobenzo[f]imidazo[1,5-d][1,4]oxazepine-10-carboxamide]	< 1	< 30
CN1CCOc2cc(NC(=O)c3ccc4c(c3)-c3cncn3CCO4)cnc21 [Compound 98A, N-(4-Methyl-3,4-dihydro-2H-pyrido[3,2-b][1,4]oxazin-7-yl)-5,6-dihydrobenzo[f]imidazo[1,5-d][1,4]oxazepine-10-carboxamide]	1 to 10	< 30
O=C(Nc1cnc(N2CC(F)(F)C2)nc1)c1ccc2c(c1)-c1cncn1CCO2 [Compound 99A, N-(2-(3,3-Difluoroazetidin-1-yl)pyrimidin-5-yl)-5,6-dihydrobenzo[f]imidazo[1,5-d][1,4]oxazepine-10-carboxamide]	10 to 100	< 30
O=C(Nc1cnc(NCC(F)(F)F)nc1)c1ccc2c(c1)-c1cncn1CCO2 [Compound 100A, N-(2-((2,2,2-Trifluoroethyl)amino)pyrimidin-5-yl)-5,6-dihydrobenzo[f]imidazo[1,5-d][1,4]oxazepine-10-carboxamide]	1 to 10	< 30
CN1CCOc2ncc(NC(=O)c3ccc4c(c3)-c3cncn3CCO4)cc21 [Compound 101A, N-(1-Methyl-2,3-dihydro-1H-pyrido[2,3-b][1,4]oxazin-7-yl)-5,6-dihydrobenzo[f]imidazo[1,5-d][1,4]oxazepine-10-carboxamide]	< 1	< 30
O=C(Nc1cnc(OCCCF)nc1)c1ccc2c(c1)-c1cncn1CCO2 [Compound 102A, N-(2-(3-Fluoropropoxy)pyrimidin-5-yl)-5,6-dihydrobenzo[f]imidazo[1,5-d][1,4]oxazepine-10-carboxamide]	1 to 10	< 30
O=C(Nc1cnc(OCCC(F)F)nc1)c1ccc2c(c1)-c1cncn1CCO2 [Compound 103A, N-(2-(3,3-Difluoropropoxy)pyrimidin-5-yl)-5,6-dihydrobenzo[f]imidazo[1,5-d][1,4]oxazepine-10-carboxamide]	1 to 10	< 30
O=C(Nc1cnc(OCCC(F)(F)F)nc1)c1ccc2c(c1)-c1cncn1CCO2 [Compound 104A, N-(2-(3,3,3-Trifluoropropoxy)pyrimidin-5-yl)-5,6-dihydrobenzo[f]imidazo[1,5-d][1,4]oxazepine-10-carboxamide]	1 to 10	< 30
O=C(N[C@H]1CC[C@H](CN2CC(F)(F)C2)CC1)c1ccc2c(c1)-c1cncn1CCO2 [Compound 105A, N-((1r,4r)-4-((3,3-Difluoroazetidin-1-yl)methyl)cyclohexyl)-5,6-dihydrobenzo[f]imidazo[1,5-d][1,4]oxazepine-10-carboxamide]	1 to 10	30 to 100
CS(=O)(=O)CCN[C@H]1CC[C@H](NC(=O)c2ccc3c(c2)-c2cncn2CCO3)CC1 [Compound 106A, N-((1r,4r)-4-((2-(Methylsulfonyl)ethyl)amino)cyclohexyl)-5,6-dihydrobenzo[f]imidazo[1,5-d][1,4]oxazepine-10-carboxamide]	1 to 10	30 to 100
O=C(N[C@H]1CC[C@H](N2CC(C(F)(F)F)C2)CC1)c1ccc2c(c1)-c1cncn1CCO2 [Compound 107A, N-((1r,4r)-4-(3-(Trifluoromethyl)azetidin-1-yl)cyclohexyl)-5,6-dihydrobenzo[f]imidazo[1,5-d][1,4]oxazepine-10-carboxamide]	1 to 10	30 to 100
O=C(N[C@@H]1CCC(F)(F)C1)c1cc(F)c2c(c1)-c1cncn1CCO2 [Compound 108A, (R)—N-(3,3-Difluorocyclopentyl)-8-fluoro-5,6-dihydrobenzo[f]imidazo[1,5-d][1,4]oxazepine-10-carboxamide]	< 1	< 30
O=C(Nc1cnc(OCC(F)(F)F)nc1)c1ccc2c(c1)-c1cncn1CCO2 [Compound 109A, N-(2-(2,2,2-Trifluoroethoxy)pyrimidin-5-yl)-5,6-dihydrobenzo[f]imidazo[1,5-d][1,4]oxazepine-10-carboxamide]	1 to 10	< 30
O=C(N[C@H]1CC[C@H](NCCC(F)(F)F)CC1)c1ccc2c(c1)-c1cncn1CCO2 [Compound 110A, N-((1r,4r)-4-((3,3,3-Trifluoropropyl)amino)cyclohexyl)-5,6-dihydrobenzo[f]imidazo[1,5-d][1,4]oxazepine-10-carboxamide]	1 to 10	30 to 100
O=C(N[C@H]1CC[C@@H](NCCC(F)(F)F)CC1)c1ccc2c(c1)-c1cncn1CCO2 [Compound 111A, N-((1s,4s)-4-((3,3,3-Trifluoropropyl)amino)cyclohexyl)-5,6-dihydrobenzo[f]imidazo[1,5-d][1,4]oxazepine-10-carboxamide]	> 100	100 to 1000
